pIC50: −log10 of the molar value. Like-named read-outs stand apart in the source and are kept apart here.
How the values were obtained:
Hep G2 (2.2.15)-Zellen = assay: DNA synthesis of Hep G2 (2.2.15) cells (acid-insoluble radioactivity after 3H-thymidine or 3H-deoxyadenosine); assay type: cell-based, menschlichen; details: 4 days, then 24 h label, mean ± SD of five experiments
Method: (§1) Die Testung der antiviralen Wirksamkeit der Nucleoside auf zelluärer Ebene erfolgte an einer menschlichen Hepatoblastom-Zellinie, die mit dem HBV-Genom tranfiziert wurde und sowohl das Oberflächenantigen des Virus (HBsAg) als auch die HBV-DNA permanent produziert und infektiöse Viruspartikel in das Medium abgibt (Hep G2-Zellen, Klon 2.2.15, Sells et al. Proc.Natl.Acad. Sci. 84, 1005 (1987)). Die Zellen (5x10⁵/ml) wurden in RPMI 1640-Medium mit 2 mM Glutamin und 10% fetalem Kälberserum allein oder zusammen mit den Nucleosid-Analoga für 4 Tage inkubiert, danach wurden den Ansätzen für 24 Stunden ³H-Thymidin bzw. ³H-Desoxyadenosin (3 µCi/ml) zugesetzt, die Zellen abzentrifugiert und darin die säureunlösliche Radioaktivität und damit der Einfluß auf die DNA-Synthese bestimmt. Im Inkubationsmedium wurde das HBsAg durch Festphasenradioimmunoassay (Travenol-Genentech Diagnostics, Cambridge, MA) entsprechend den Instruktionen des Herstellers ermittelt. Die Tabelle 4 faßt die Ergebnisse zusammen, die belegen, daß die getesteten Verbindungen hochwirksame und selektive Hemmstoffe der HBV-Vermehrung sind.

[1] = system: HBsAg-Sekretion von Hep G2 (2.2.15)-Zellen; assay: Inhibition of HBsAg secretion of Hep G2 (2.2.15) cells (solid-phase radioimmunoassay of the medium); assay type: cell-based, HBV
Method: as §1

HBV-Polymerase = target: T1, HBV-Polymerase (Hepatitis B virus genotype D subtype ayw, UniProt P03156); assay: Inhibition of HBV polymerase activity by nucleoside triphosphate analogues (method of Kaplan et al.); assay type: biochemical
T1 construct: Es wurde zunächst die Hemmbarkeit der HBV-assoziierten Polymerase; host or cells: virus-associated endogenous polymerase
From the text: Das Hepatitis B Virus (HBV) besitzt eine zirkuläre, partiell doppelsträngige DNA, welche nach Infektion einer Leberzelle durch eine viruseigene Polymerase repliziert wird. Dieser Vorgang setzt jedoch die Synthese einer RNA durch eine zelluläre RNA-Polymerase voraus. Nur diese RNA-Matrize - im Zusammenhang mit der Replikation auch als Prägenom bezeichnet - kann von der HBV-Polymerase für die Synthese zunächst eines RNA-DNA Hybrids und dann der doppelsträngigen DNA benutzt werden. Damit verfügt die HBV-Polymerase über eine enzymatische Aktivität, die der einer reversen Transcriptase ähnelt (Will et al., J.Virology 61, 904 (1987)). Es wurde zunächst die Hemmbarkeit der HBV-assoziierten Polymerase durch die 5′-Triphosphate der erfindungsgemäßen Verbindungen untersucht. Dazu wurde die von Kaplan et al. (J.Virology 12, 995 (1973)) angegebene Methode zur Bestimmung der HBV-Polymerase benutzt, wobei die zu testenden Triphosphate den Ansätzen in verschiedenen Konzentrationen zugesetzt wurden. Die Hemmung der Enzymreaktion wurde nach 3-stündiger Inkubation bei 37 °C durch Vergleich mit einem Kontrollwert ermittelt und daraus die Konzentration der zugesetzten Analoga bestimmt, die zu einer 50 %igen Hemmung der HBV-Polymerase-Aktivität führt (ID₅₀). Tabelle 1 zeigt die Ergebnisse, wobei insbesondere 2′,3′-Didesoxy-3′-fluor-5-methylcytidin durch einen Wert ID₅₀ von 0,03 µM herausragt und damit zu den stärksten bisher bekannten Hemmstoffen der HBV-Polymerase zu rechnen ist. Tabelle 1

[2] = nucleoside 0,01 µM, 4 days + 24 h, mean ± SD of five experiments
[3] = nucleoside 0,1 µM, 4 days + 24 h, mean ± SD of five experiments
[4] = nucleoside 0,01 µM, % of control without nucleoside (100)
[5] = nucleoside 0,1 µM, % of control without nucleoside (100)
[6] = nucleoside 0,03 µM, 4 days + 24 h, mean ± SD of five experiments
[7] = nucleoside 0,3 µM, 4 days + 24 h, mean ± SD of five experiments
[8] = nucleoside 0,03 µM, % of control without nucleoside (100)
[9] = nucleoside 0,3 µM, % of control without nucleoside (100)
[10] = nucleoside 0,003 µM, 4 days + 24 h, mean ± SD of five experiments
[11] = nucleoside 0,003 µM, % of control without nucleoside (100)
[12] = nucleoside 1,0 µM, 4 days + 24 h, mean ± SD of five experiments
[13] = nucleoside 1,0 µM, % of control without nucleoside (100)
[14] = nucleoside 3,0 µM, 4 days + 24 h, mean ± SD of five experiments
[15] = nucleoside 3,0 µM, % of control without nucleoside (100)

T1 sequence (P03156 whole entry): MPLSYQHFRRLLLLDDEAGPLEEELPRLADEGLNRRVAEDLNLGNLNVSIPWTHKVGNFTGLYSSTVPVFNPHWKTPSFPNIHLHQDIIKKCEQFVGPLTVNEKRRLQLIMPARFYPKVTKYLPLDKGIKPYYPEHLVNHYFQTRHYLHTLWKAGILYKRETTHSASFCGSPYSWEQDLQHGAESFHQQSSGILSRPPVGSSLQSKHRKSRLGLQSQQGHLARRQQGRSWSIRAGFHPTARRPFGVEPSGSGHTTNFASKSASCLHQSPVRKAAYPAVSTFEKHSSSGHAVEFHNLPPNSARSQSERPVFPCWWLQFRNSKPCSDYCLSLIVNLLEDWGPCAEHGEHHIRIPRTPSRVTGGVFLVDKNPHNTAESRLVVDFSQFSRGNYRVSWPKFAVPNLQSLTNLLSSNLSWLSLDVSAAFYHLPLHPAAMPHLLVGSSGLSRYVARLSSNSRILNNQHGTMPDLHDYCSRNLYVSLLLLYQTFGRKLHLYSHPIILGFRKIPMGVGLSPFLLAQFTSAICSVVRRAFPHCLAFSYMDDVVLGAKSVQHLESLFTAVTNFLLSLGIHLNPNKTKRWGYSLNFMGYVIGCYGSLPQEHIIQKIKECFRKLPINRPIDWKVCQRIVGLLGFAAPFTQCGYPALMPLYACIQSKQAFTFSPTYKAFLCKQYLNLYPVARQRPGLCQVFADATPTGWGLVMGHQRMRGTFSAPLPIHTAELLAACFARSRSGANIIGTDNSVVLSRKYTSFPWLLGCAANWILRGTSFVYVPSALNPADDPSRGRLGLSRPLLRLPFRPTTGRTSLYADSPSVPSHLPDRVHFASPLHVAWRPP

SMILES | ^3H-DNA (Hep G2 (2.2.15)-Zellen; nucleoside 0,01 µM) [dpm/Kultur] | ^3H-DNA (Hep G2 (2.2.15)-Zellen; nucleoside 0,1 µM) [dpm/Kultur] | ^3H-DNA (Hep G2 (2.2.15)-Zellen; nucleoside 0,03 µM) [dpm/Kultur] | ^3H-DNA (Hep G2 (2.2.15)-Zellen; nucleoside 0,3 µM) [dpm/Kultur] | ^3H-DNA (Hep G2 (2.2.15)-Zellen; nucleoside 0,003 µM) [dpm/Kultur] | ^3H-DNA (Hep G2 (2.2.15)-Zellen; nucleoside 1,0 µM) [dpm/Kultur] | ^3H-DNA (Hep G2 (2.2.15)-Zellen; nucleoside 3,0 µM) [dpm/Kultur] | HBsAg [1, 2] | HBsAg [1, 3] | HBsAg [1, 4] [%] | HBsAg [1, 5] [%] | HBsAg [1, 6] | HBsAg [1, 7] | HBsAg [1, 8] [%] | HBsAg [1, 9] [%] | HBsAg [1, 10] | HBsAg [1, 11] [%] | HBsAg [1, 12] | HBsAg [1, 13] [%] | HBsAg [1, 14] | other results
Nc1ccn([C@H]2C=C[C@@H](CO)O2)c(=O)n1 [2',3'-Didehydro-2',3'-didesoxycytidin] | 18410 ± 1895 | 19930 ± 1830 | 15685 ± 1740 | 14270 ± 1655 | 17940 ± 1865 | 12350 ± 1310 | 6535 ± 790 | 12,1 ± 1,6 ng/ml | 0,8 ± 0,2 ng/ml | 69 | 5 | 5,8 ± 1,2 ng/ml | 0,4 ± 0,2 ng/ml | 33 | 2 | 18,7 ± 2,8 ng/ml | 107 | < 0,1 ng/ml | < 1 | < 0,1 ng/ml | HBsAg [1, 15]: < 1%
Nc1nc(N)c2ncn([C@H]3C[C@H](F)[C@@H](CO)O3)c2n1 [2',3'-Didesoxy-3'-fluor-2,6-diaminopurinribosid] | 16820 ± 1775 | 19990 ± 1820 | 17265 ± 1895 | 15125 ± 1795 | 19535 ± 1835 | 18885 ± 1950 | 17740 ± 1670 | 3,2 ± 0,6 ng/ml | < 0,1 ng/ml | 18 | < 1 | 2,0 ± 0,5 ng/ml | < 0,1 ng/ml | 11 | < 1 | 15,9 ± 2,7 ng/ml | 91 | < 0,1 ng/ml | < 1 | < 0,1 ng/ml | HBsAg [1, 15]: < 1%
CCc1cn([C@H]2C[C@H](F)[C@@H](CO)O2)c(=O)nc1N [2',3'-Didesoxy-3'-fluor-5-ethylcytidin] | 13855 ± 1945 | 15245 ± 1655 | 14570 ± 1695 | 14130 ± 1940 | 14020 ± 1780 | 9850 ± 1230 | 6640 ± 965 | 8,2 ± 0,8 ng/ml | 0,6 ± 0,1 ng/ml | 42 | 3 | 2,6 ± 0,6 ng/ml | < 0,1 ng/ml | 13 | < 1 | 16,7 ± 2,6 ng/ml | 87 | < 0,1 ng/ml | < 1 | < 0,1 ng/ml | HBsAg [1, 15]: < 1%
Cc1cn([C@@H]2O[C@H](CO)[C@@H](O)[C@@H]2O)c(=O)nc1N [Arabinosyl-5-methyl-cytosin, 1-β-D-Arabinofuranosyl-5-methylcytosin] | 17990 ± 1635 | 16225 ± 1825 | 19075 ± 1905 | 18600 ± 1865 | 17755 ± 1750 | 12415 ± 1070 | 8470 ± 935 | 12,4 ± 1,2 ng/ml | 3,6 ± 0,5 ng/ml | 71 | 21 | 10,3 ± 1,2 ng/ml | 0,6 ± 0,3 ng/ml | 59 | 3 | 16,8 ± 1,7 ng/ml | 96 | < 0,1 ng/ml | < 1 | < 0,1 ng/ml | HBsAg [1, 15]: < 1%
Nc1nc2c(ncn2[C@H]2C[C@H](F)[C@@H](COP(=O)(O)OP(=O)(O)OP(=O)(O)O)O2)c(=S)[nH]1 [2′,3′-Didesoxy-3′-fluor-6-thioguanosin-5′-triphosphat] | – | – | – | – | – | – | – | – | – | – | – | – | – | – | – | – | – | – | – | – | pIC50 (HBV-Polymerase): 6.30
Nc1ncc2ncn([C@H]3C[C@H](F)[C@@H](COP(=O)(O)OP(=O)(O)OP(=O)(O)O)O3)c2n1 [2′,3′-Didesoxy-3′-fluor-2-aminopurinribosid-5′-triphosphat] | – | – | – | – | – | – | – | – | – | – | – | – | – | – | – | – | – | – | – | – | pIC50 (HBV-Polymerase): 6.22
Nc1nc2c(ncn2[C@H]2C[C@H](N)[C@@H](COP(=O)(O)OP(=O)(O)OP(=O)(O)O)O2)c(=O)[nH]1 [2′,3′-Didesoxy-3′-aminoguanosin-5′-triphosphat] | – | – | – | – | – | – | – | – | – | – | – | – | – | – | – | – | – | – | – | – | pIC50 (HBV-Polymerase; 50 % inhibition of HBV polymerase activity, 3 h incubation at 37 °C, read-out: ID₅₀): 5.40

— EP0409227A2, “Pyrimidine nucleosides, their preparation and pharmaceutical preparations” (MATTHES, Eckart, Dr., priority 1989, dated 1991)
